Consider 9 compounds from PMC8704661, “A Structural Approach to Anti-Virulence: A Discovery Pipeline” (Microorganisms, 2021).

The target in data set [1] is T1, Plx2A (Paenibacillus larvae, UniProt M9V3B7). Briefly: biochemical. In kind it is binding.
Data set [2] has as its target T1, Plx2A. The experiment in a line: biochemical.
The target of data set [3] is T1, Plx2A. To be noted: cited from earlier work.
Data set [4] deals with model insect cell culture. More on the design: method as in PMID 34564612. To be noted: cited from earlier work.
The test system of data set [5] is Escherichia coli. Details: method as in PMID 34740095. To be noted: cited from earlier work.
For data set [6], the system named is Staphylococcus aureus. More on the design: method as in PMID 34740095. To be noted: cited from earlier work.
The subject of data set [7] is Pseudomonas aeruginosa. More on the design: method as in PMID 34740095. To be noted: cited from earlier work.
In data set [8] the test system is C3larvin. Details: method as in PMID 25477523. Particulars: read-out: Ki (C3larvin mART enzymatic activity); cited from earlier work.
Data set [9] concerns Vis toxin. More on the design: method as in PMID 26352925. Particulars: cited from earlier work.
Data set [10] relates to C3bot1. Particulars: cited from earlier work.
Data set [11] concerns P. larvae ERIC I-infected honey bee larva. Details: method as in PMID 34564612. To be noted: P. larvae ERIC I infection; cited from earlier work.

Entries after “also recorded” stand apart in the source; their conditions may differ.

For orientation: Kd means the constant that tells how readily two partners part at equilibrium. Lower therefore signals a tighter complex. The IC50 is the concentration at which inhibition is half-maximal. `O=c1cc(-c2ccccc2)oc2cc(O)cc(O)c12` [Chrysin, 5,7-dihydroxy-2-phenyl-4H-chromen-4-one] gave a dissociation constant (Kd) in data set [1] of 40.6 ± 4.7 µM. In addition, the concentration for half-maximal inhibition (IC50) in data set [2] came out at 49.2 ± 2.5 µM.
For `O=c1cc(-c2ccccc2)oc2cc(O)c(O)c(O)c12` [Baicalein, 5,6,7-trihydroxy-2-phenyl-4H-chromen-4-one], in data set [3], the “Inhibition of Plx2A GH activity” value is given as “strong inhibitors”. In addition, in data set [4], the “Protection of cultured insect cells from Plx2A intoxication” value (“Protection of cultured insect cells” for short) is recorded as “not Baicalein”.
The term Ki denotes the equilibrium dissociation constant of an inhibitor or competing ligand from its target. Take `O=c1c(O)c(-c2ccc(O)c(O)c2)oc2cc(O)cc(O)c12` [Quercetin, 2-(3,4-dihydroxyphenyl)-3,5,7-trihydroxy-4H-chromen-4-one]: the Kd in data set [1] was 19.9 ± 0.4 µM. For the same compound, in data set [2], half-maximal inhibition (IC50) required 24.3 ± 0.8 µM, the inhibitory constant (Ki) was determined as 18 ± 2.8 µM and the “Mechanism of inhibition of Plx2A GH activity (Lineweaver-Burk)” value is on record as “non-competitive inhibition; also recorded: non-competitive mechanism”. Further, in data set [5], the “Antibacterial activity” value is on record as “potent antibacterial activity”. Moreover, the “Antibacterial activity” value in data set [6] is “potent antibacterial activity”. Further, in [7], the “Antibacterial activity” value was “potent antibacterial activity”.
Consider `COc1ccc(-c2cc(=O)c3c(O)cc(O)cc3o2)cc1` [Acacetin, 5,7-dihydroxy-2-(4-methoxyphenyl)-4H-chromen-4-one], for which the “Inhibition of Plx2A GH activity” value in data set [3] was “strong inhibitors”. Besides, in data set [4], the “Concentration that protected the cell culture against Plx2A cytotoxicity (prevented bi-nucleated cells)” value is 30 µM and the “Protection of cultured insect cells” value is recorded as “protected the cultured cells from Plx2A intoxication”.
With `O=c1c(O)c(-c2ccc(O)cc2O)oc2cc(O)cc(O)c12` [Morin, 2-(2,4-dihydroxyphenyl)-3,5,7-trihydroxy-4H-chromen-4-one], the Kd in [1] was found to be 32.8 ± 11.7 µM. Moreover, inhibition in [2] was half-maximal at 109 ± 4.8 µM (IC50).
Taken in the same sequence, the figures for `O=c1cc(-c2ccc(O)c(O)c2)oc2cc(O)cc(O)c12` [Luteolin, 2-(3,4-dihydroxyphenyl)-5,7-dihydroxy-4H-chromen-4-one] were 24 ± 1.5 µM and 68.1 ± 1.8 µM.
`CS(=O)(=O)NC[C@@H]1CCCN(c2ncnc3[nH]ncc23)C1` [Inhibitor M3, N-{[(3R)-1-{1H-pyrazolo[3,4-d]pyrimidin-4-yl}piperidin-3-yl]methyl}methanesulfon amide] registered an IC50 in data set [2] of 216 ± 22.7 µM. In [3], the “Inhibition of Plx2A GH activity” value was “potent inhibitor; also recorded: strong inhibitors”. For the same compound, in data set [8], the Ki is 11 µM. For the same compound, the “Inhibition of Vis toxin” value in data set [9] is on record as “effective inhibitor”. The “Inhibition of C3bot1” value in [10] was “effective inhibitor”. Besides, in [4], the “Concentration that protected the cell culture against Plx2A cytotoxicity (prevented bi-nucleated cells)” value is 300 µM and the “Protection of cultured insect cells” value was “protected the cultured cells from Plx2A intoxication”. For the same compound, in data set [11], the “Protection of honey bee larva / reduction of larval mortality” value is given as “failed to protect honey bee larva”.
`COc1cc(-c2cc(=O)c3c(O)c(OC)c(O)cc3o2)ccc1O` [Jaceosidin, 5,7-dihydroxy-2-(4-hydroxy-3-methoxyphenyl)-6-methoxy-4H-chromen-4-one] had a Kd in data set [1] of 24.1 ± 2.9 µM. Besides, in data set [2], the IC50 worked out at 73.9 ± 4.7 µM.
Taken in the same sequence, the figures for `O=c1c(O)c(-c2ccc(O)cc2)oc2cc(O)cc(O)c12` [Kaempferol, 3,5,7-trihydroxy-2-(4-hydroxyphenyl)-4H-chromen-4-one] were 37.3 ± 3.6 µM and 79.9 ± 6 µM.
